Experiment [1] addresses human phosphodiesterase-5 (PDE5) (Homo sapiens (Human), UniProt O76074). Nature of the experiment: PDE5 assay: formation of 5'GMP from cGMP, PDE5 enzyme isolated from human platelets.
Description: Purpose: Evaluation of the effects of compounds of the present invention on the activity of the human phosphodiesterase-5 quantified by measuring the formation of 5′GMP from cGMP using PDE5 enzyme isolated from human platelets.
Thereafter, the reaction is initiated by addition of the enzyme and the mixture is incubated for 60 min at 22° C.
For basal control measurements, the enzyme is omitted from the reaction mixture. Following incubation SPA beads are added. After 20 min at 22° C. under shaking, the amount of [3H]5′GMP is quantified with a scintillation counter (Topcount, Packard).
The subject of experiment [2] is human pulmonary artery smooth muscle cells (hPASMC). Nature of the experiment: Measurements of cGMP in human pulmonary artery smooth muscle cells (hPASMC). The experiment is classed as cell-based. The note with it: incubation 15 or 30 min. Here is the method:
Human Pulmonary Artery Smooth Muscle Cells (hPASMC) were purchased from Clonetics™ Lonza (Lonza, reference number CC-2581) and cultured in Clonetics™ smooth muscle growth medium (Clonetics™ SmGM™-2 with BulletKit™ growth factor supplements (Lonza, reference number CC-3182) at 37° C. in 500 CO2. Culture medium was replaced each 48 hours. Cells were grown in 75 cm^2 culture plates. 48 h before the experiments, cells were trypsinized (Trypsin kit One ReagentPack™ (CC-5034), Lonza) and plated in 96 well plates precoated with collagen I at 10000 cells per well. 24 h before the experiments culture medium was replaced by serum-reduced (0.5% FBS) medium.
Measurements of intracellular cGMP were performed using the Amersham cGMP EIA System (GE Healthcare, RPN226) following the instructions of the manufacturer. The assay has a sensitivity of 2 fmol cGMP per well. Briefly, incubations were terminated by adding Amersham's lysis buffer 1 and cells left for 10 min under agitation to ensure complete lysis. cGMP in samples was then acetylated using triethylamine and acetic anhydride and determined by a competitive ELISA. The ELISA is based on the competition between acetylated cGMP in cell culture lysates and a peroxidase-labelled cGMP conjugate for limited binding sites on a cGMP specific antiserum immobilized on pre-coated 96 well MTP. cGMP was determined based on a standard curve. […]

In experiment [3] the test system is phenylephrine-precontracted rat aortic rings. In words: Isometric tension studies on rat aortic rings (relaxation of phenylephrine-precontracted rings). The note with it: for potency and efficacy compared to intact endothelium, in words: L-NAME (FIG. 2C) or mechanical removal of endothelium (FIG. 2D); for EC50 / Emax: Rattus norvegicus.
Description: After 1 week of acclimatization, rats were anesthetized. Appropriate depth of anesthesia was determined by the absence of the leg flexor response and the eyelid reflex. Then, the thorax was quickly opened by a midline incision, and the rat was sacrificed by cutting the heart and exsanguination.
Indomethacin (1 μM) was added to the saline solution.
Eligible rings were then washed several times to restore tension to the baseline level.
In some experiments, the entire length of the thoracic aorta was functionally denuded of the endothelial layer by gently scraping the luminal surface with a 1.5 mm glass rod. […] Rings were then washed several times to restore tension to the baseline level.
Indomethacin (1 μM) was added to the saline solution. […] Only vessels with at least 60% relaxation to 1 μM ACh from the tension with 300 nM were eligible.
The preparations were allowed to equilibrate for 60 min in Krebs with high glucose (25 mM) before contraction to a new single concentration of PE (300 nM).
Finally, sodium nitroprusside (0.1 mM) was added, in order to obtain maximum relaxation of arterial rings.
The amount of relaxation (percent values as means±SEM) was quantified as percent relaxation from the tension (plateau) achieved with phenylephrine.
Data are presented as mean±SEM. Statistical analysis of results has been performed by analysis of variance (ANOVA) either parametric or non-parametric (Kruskal-Wallis), followed by Bonferroni test or Dunn tests as appropriate (GraphPad Software Inc, San Diego, CA, USA). Significance was accepted when P<0.05. Non-linear regression was conducted with GraphPad Software).

Like-named read-outs stand apart in the source and are kept apart here.

With `CCCc1c(/C=N/O)c(C)c2c(=O)[nH]c(-c3cc(S(=O)(=O)N4CCN(C)CC4)ccc3OCC)nn12` [Compound 1a, (E)-2-(2-ethoxy-5-((4-methylpiperazin-1-yl)sulfonyl)phenyl)-5-methyl-4-oxo-7-propyl-3,4-dihydropyrrolo[2,1-f][1,2,4]triazine-6-carbaldehyde oxime], the 50% inhibitory concentration (IC50) in experiment [1] (human platelet PDE5) is 0.25 nM.

`CCCc1c(/C=N/O)c(C)c2c(=O)[nH]c(-c3cc(S(=O)(=O)N4CCN(CCCO)CC4)ccc3OCC)nn12` [Compound 1an, (E)-2-(2-ethoxy-5-(4-(3-hydroxypropyl)piperazin-1-ylsulfonyl)phenyl)-5-methyl-4-oxo-7-propyl-3,4-dihydropyrrolo[1,2-f][1,2,4]triazine-6-carbaldehyde oxime] had an IC50 in experiment [1] (human platelet PDE5) of 0.42 nM.

In experiment [1] (human platelet PDE5), `CCCOc1ccc(S(=O)(=O)N2CCN(C)CC2)cc1-c1nn2c(CCC)c(/C=N/OC)c(C)c2c(=O)[nH]1` [Compound 1o, (E)-5-methyl-2-(5-((4-methylpiperazin-1-yl)sulfonyl)-2-propoxyphenyl)-4-oxo-7-propyl-3,4-dihydropyrrolo[2,1-f][1,2,4]triazine-6-carbaldehyde O-methyl oxime] gave an IC50 of 0.53 nM.

With `CCCOc1ccc(S(=O)(=O)N2CCC(CCO)CC2)cc1-c1nn2c(CCC)c(/C=N/O)c(C)c2c(=O)[nH]1` [Compound 1r, (E)-2-(5-((4-(2-hydroxyethyl)piperidin-1-yl)sulfonyl)-2-propoxyphenyl)-5-methyl-4-oxo-7-propyl-3,4-dihydropyrrolo[2,1-f][1,2,4]triazine-6-carbaldehyde oxime], in experiment [2], the “cGMP in hPASMC, activity compared to sildenafil” value was “significantly higher activity as compared to the reference inhibitor sildenafil”. In addition, the IC50 in experiment [1] stood at 0.16 nM. For the same molecule, the “potency and efficacy compared to intact endothelium, in words” value in experiment [3] is “largely impaired”. For the same molecule, the concentration giving a half-maximal response (EC50) was found to be 2.79 nM in experiment [3] (High Glucose (25 mM)), 0.0074 nM in experiment [3] (Intact Endothelium (E+)), 0.935 nM in experiment [3] (L-NAME (100 μM)) and 5.94 nM in experiment [3] (Without Endothelium). Besides, the maximum response (Emax) was 51% in experiment [3] (High Glucose (25 mM)), 91.9% in experiment [3] (Intact Endothelium (E+)), 60.4% in experiment [3] (L-NAME (100 μM)) and 39.8% in experiment [3] (Without Endothelium). Besides, the “relaxation of rat aortic rings, comparison in words” value in experiment [3] (intact endothelium (FIG. 2A)) is “more potent and effective than Sildenafil”.

On to `CCCOc1ccc(S(=O)(=O)N2CCC(CCO[N+](=O)[O-])CC2)cc1-c1nn2c(CCC)c(/C=N/O)c(C)c2c(=O)[nH]1` [Compound 1v, (E)-2-(1-((3-(6-((hydroxyimino)methyl)-5-methyl-4-oxo-7-propyl-3,4-dihydropyrrolo[2,1-f][1,2,4]triazin-2-yl)-4-propoxyphenyl)sulfonyl)piperidin-4-yl)ethyl nitrate], for which, in experiment [2], the “cGMP in hPASMC, activity compared to sildenafil” value is recorded as “significantly higher activity as compared to the reference inhibitor sildenafil”. Also, the “potency and efficacy compared to intact endothelium, in words” value in experiment [3] is on record as “superior”. Further, the “relaxation of rat aortic rings, comparison in words” value was “more potent and effective than Sildenafil” in experiment [3] (intact endothelium (FIG. 2A)); “clearly more potent and efficacious than 1r” in experiment [3] (pre-exposed to high glucose 25 mM (FIG. 2B)).

Turning to “(E)-2-(2-ethoxy-5-(4-(2-hydroxyethyl)piperidin-1-ylsulfonyl)phenyl)-5-methyl-4-oxo-7-propyl-3,4-dihydropyrrolo[1,2-f][1,2,4]triazine-6-carbaldehyde oxime [Compound 1al]”, the “% inhibition at 5.0E−09M” value in experiment [1] (5.0E−09M, percent inhibition of control enzyme activity) was determined as 84.9%. In experiment [1] (human platelet PDE5), this molecule registered an IC50 of 0.48 nM.

For the molecule “(E)-2-(4-(4-ethoxy-3-(6-((methoxyimino)methyl)-5-methyl-4-oxo-7-propyl-3,4-dihydropyrrolo [1,2-f][1,2,4]triazin-2-yl)phenylsulfonyl)piperazin-1-yl)ethyl nitrate [Compound 1ai]”, in experiment [1], the “% inhibition at 5.0E−09M” value is on record as 0.3%.

Source of the values: patent US12351585B2, “2-phenyl-3,4-dihydropyrrolo[2,1-f] [1,2,4]triazinone derivatives as phosphodiesterase inhibitors and uses thereof” (TOPADUR PHARMA AG, priority 2015, dated 2025).
